This passage reports Activity, Kd and Selectivity ratio results from ChEMBL document CHEMBL4831499, “Benzimidazole-galactosides bind selectively to the Galectin-8 N-Terminal domain: Structure-based design and optimisation” (Eur J Med Chem, 2021).

pKd: −log10 of the molar value. Activity calls are given as the source filed them. No cut-off for these calls is given here.

The target of experiment [1] is T1, Galectin-3 (Homo sapiens, UniProt P17931). Put plainly: Binding affinity to human galactin-3 assessed as dissociation constant at 1500 uM by competitive fluorescence polarization assay.
Experiment [2] addresses T2, Galectin-8 (Homo sapiens, UniProt O00214).
T2 sequence (O00214 whole entry): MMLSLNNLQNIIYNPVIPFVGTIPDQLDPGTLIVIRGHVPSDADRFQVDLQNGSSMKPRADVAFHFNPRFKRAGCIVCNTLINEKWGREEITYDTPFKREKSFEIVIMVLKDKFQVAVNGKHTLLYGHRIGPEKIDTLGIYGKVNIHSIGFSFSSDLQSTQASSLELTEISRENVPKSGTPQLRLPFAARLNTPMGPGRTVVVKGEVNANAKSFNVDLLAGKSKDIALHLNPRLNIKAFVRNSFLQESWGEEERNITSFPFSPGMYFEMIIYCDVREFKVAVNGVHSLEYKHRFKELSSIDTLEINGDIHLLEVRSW
Put plainly: Binding affinity to human galactin-8 N terminal domain assessed as dissociation constant by competitive fluorescence polarization assay.

In experiment [3] the target is T2, Galectin-8. The experiment in a line: Binding affinity to galectin-8 N-terminal domain (unknown origin).
For experiment [4], the target named is T1, Galectin-3. Put plainly: Binding affinity to galectin-3 (unknown origin).
For experiment [5], the target named is T1, Galectin-3. Put plainly: Binding affinity to human galactin-3 assessed as dissociation constant by competitive fluorescence polarization assay.
The species entered for experiment [6] is Homo sapiens. The experiment in a line: Selectivity ratio of Kd for binding affinity to human galactin-8 N terminal domain to Kd for binding affinity to human galactin-3.
Experiment [7] addresses T3, Galectin-4 (Homo sapiens, UniProt P56470).
T3 sequence (P56470 whole entry): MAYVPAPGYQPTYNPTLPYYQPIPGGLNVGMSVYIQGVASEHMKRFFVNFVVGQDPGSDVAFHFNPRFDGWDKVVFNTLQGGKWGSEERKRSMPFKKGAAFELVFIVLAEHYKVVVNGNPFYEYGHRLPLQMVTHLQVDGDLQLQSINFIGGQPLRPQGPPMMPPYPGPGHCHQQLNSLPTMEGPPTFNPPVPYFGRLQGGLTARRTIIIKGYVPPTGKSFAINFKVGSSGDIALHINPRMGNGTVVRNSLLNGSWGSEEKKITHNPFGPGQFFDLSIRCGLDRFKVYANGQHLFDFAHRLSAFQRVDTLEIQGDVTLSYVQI
The experiment in a line: Binding affinity to human galactin-4 C terminal domain assessed as dissociation constant by competitive fluorescence polarization assay.

For experiment [8], the target named is Galectin-1 (Homo sapiens, UniProt P09382). The experiment in a line: Binding affinity to human galactin-1 assessed as dissociation constant by competitive fluorescence polarization assay.
Experiment [9] concerns the target T3, Galectin-4. The experiment in a line: Binding affinity to human galactin-4 N terminal domain assessed as dissociation constant by competitive fluorescence polarization assay.
Experiment [10] has as its target Galectin-7 (Homo sapiens, UniProt P47929). Put plainly: Binding affinity to human galactin-7 assessed as dissociation constant by competitive fluorescence polarization assay.
Experiment [11] is filed under the species Homo sapiens. The experiment in a line: Selectivity ratio of Kd for binding affinity to human galactin-9 N terminal domain to binding affinity to human galactin-8 N terminal domain.
Experiment [12] addresses T4, Galectin-9 (Homo sapiens, UniProt O00182). Put plainly: Binding affinity to human galactin-9 N terminal domain assessed as dissociation constant by competitive fluorescence polarization assay.
For experiment [13], the species on record is Homo sapiens. The experiment in a line: Selectivity ratio of Kd for binding affinity to human galactin-9 C terminal domain to binding affinity to human galactin-8 N terminal domain.
Experiment [14] deals with T2, Galectin-8. Put plainly: Binding affinity to human galactin-8 C terminal domain assessed as dissociation constant by competitive fluorescence polarization assay.
For experiment [15], the target named is T5, Galectin-2 (Homo sapiens, UniProt P05162).
T5 sequence (P05162 whole entry): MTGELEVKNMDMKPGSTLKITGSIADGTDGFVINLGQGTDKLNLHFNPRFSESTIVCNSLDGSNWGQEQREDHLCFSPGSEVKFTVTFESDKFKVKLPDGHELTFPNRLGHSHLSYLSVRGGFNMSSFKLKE
The experiment in a line: Binding affinity to human galactin-2 assessed as dissociation constant by competitive fluorescence polarization assay.

Experiment [16] has as its target T4, Galectin-9. Put plainly: Binding affinity to human galactin-9 C terminal domain assessed as dissociation constant by competitive fluorescence polarization assay.
The target of experiment [17] is T6, Galectin-8 (Homo sapiens) (UniProt O00214).
T6 sequence (whole entry): T2 sequence (O00214 whole entry)
Put plainly: Binding affinity to human galactin-8 N terminal domain assessed as dissociation constant at 1500 uM by competitive fluorescence polarization assay.

T4 sequence (O00182 whole entry, the tested form may be a part): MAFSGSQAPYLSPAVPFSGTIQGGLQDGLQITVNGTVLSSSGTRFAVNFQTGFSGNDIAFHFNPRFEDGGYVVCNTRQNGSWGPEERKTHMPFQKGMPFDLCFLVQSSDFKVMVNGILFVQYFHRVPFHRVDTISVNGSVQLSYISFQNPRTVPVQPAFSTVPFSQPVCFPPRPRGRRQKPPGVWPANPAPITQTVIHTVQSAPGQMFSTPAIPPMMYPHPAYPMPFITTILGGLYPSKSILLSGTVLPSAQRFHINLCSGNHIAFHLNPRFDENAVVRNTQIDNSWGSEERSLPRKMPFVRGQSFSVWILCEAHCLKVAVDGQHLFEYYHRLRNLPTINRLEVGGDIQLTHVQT
T1 sequence (P17931 whole entry): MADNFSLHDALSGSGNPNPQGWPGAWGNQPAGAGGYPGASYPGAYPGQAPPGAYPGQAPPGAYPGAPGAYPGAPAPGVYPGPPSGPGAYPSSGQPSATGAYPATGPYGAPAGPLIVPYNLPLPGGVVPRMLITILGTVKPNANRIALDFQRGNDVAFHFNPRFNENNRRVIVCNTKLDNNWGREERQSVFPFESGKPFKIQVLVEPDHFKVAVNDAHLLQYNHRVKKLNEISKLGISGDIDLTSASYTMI
Sequence of Galectin-1 (P09382 whole entry, the tested form may be a part): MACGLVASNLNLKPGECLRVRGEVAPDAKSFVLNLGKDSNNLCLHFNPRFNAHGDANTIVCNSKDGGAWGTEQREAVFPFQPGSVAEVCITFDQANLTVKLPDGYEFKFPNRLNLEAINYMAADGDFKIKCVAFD
Sequence of Galectin-7 (P47929 whole entry, the tested form may be a part): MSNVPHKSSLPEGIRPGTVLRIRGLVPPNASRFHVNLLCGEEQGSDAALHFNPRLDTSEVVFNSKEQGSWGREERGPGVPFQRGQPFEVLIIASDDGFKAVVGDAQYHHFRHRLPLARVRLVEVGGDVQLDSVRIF

`COC(=O)c1ccc2nc(CO[C@H]3[C@@H](O)[C@@H](CO)O[C@@H](OC)[C@@H]3O)n(C)c2c1`: the outcome in experiment [1] was inactive. Also, the pKd in experiment [2] is 2.96.

As to `CO[C@@H]1O[C@H](CO)[C@H](O)[C@H](OCc2ccc3ccc(C(=O)O)cc3n2)[C@H]1O`, the pKd in experiment [3] was 3.96; in [4], 3.42.

For the compound `COC(=O)c1cccc(-n2cc(CO[C@H]3[C@@H](O)[C@@H](CO)O[C@@H](OC)[C@@H]3O)nn2)c1`, the pKd in experiment [5] was 3.29; in experiment [2] it was 3.09.

Regarding `Cc1ccc(S[C@@H]2O[C@H](CO)[C@H](O)[C@H](OCc3cn(-c4ccc(C(=O)O)cc4)nn3)[C@H]2O)cc1`, the values for the pKd in experiment [5] and in experiment [2] were 3.64 and 2.82, respectively.

As for `Cc1ccc(S[C@@H]2O[C@H](CO)[C@H](O)[C@H](OCc3cn(-c4ccccc4C(=O)O)nn3)[C@H]2O)cc1`, the pKd is 3.16 in experiment [5] and 2.92 in experiment [2].

For `CO[C@@H]1O[C@H](CO)[C@H](O)[C@H](OCc2nc3ccc(C(=O)O)cc3n2C)[C@H]1O`, the figures for the pKd in experiment [5] and in experiment [2] were 2.85 and 3.72, respectively. In [6], the Selectivity ratio is 7.

Turning to `CO[C@@H]1O[C@H](CO)[C@H](O)[C@H](OCc2nc3ccccc3s2)[C@H]1O`, the pKd in [5] is 3.29; in experiment [2], 3.06.

Turning to `CO[C@@H]1O[C@H](CO)[C@H](O)[C@H](OCc2nc3ccccc3[nH]2)[C@H]1O`, the pKd in experiment [5] is 2.82; in experiment [2] it was 3.07.

Consider `CO[C@@H]1O[C@H](CO)[C@H](O)[C@H](OCc2nc3cc(C(=O)O)ccc3n2C)[C@H]1O`, for which the pKd in experiment [5] is 2.96; in experiment [2], below 2.70.

On to `COC(=O)c1ccc(-n2cc(CO[C@H]3[C@@H](O)[C@@H](CO)O[C@@H](OC)[C@@H]3O)nn2)cc1`, for which the negative-log Kd (pKd) in experiment [5] was 3.15; in [2], below 2.70.

Consider `COC(=O)c1ccc2nc(CO[C@H]3[C@@H](O)[C@@H](CO)O[C@@H](OC)[C@@H]3O)[nH]c2c1`, for which the figures for the pKd in experiment [5] and in experiment [2] were 2.80 and 2.92, respectively.

For `COC(=O)c1ccc(-n2cc(CO[C@H]3[C@@H](O)[C@@H](CO)O[C@@H](Sc4ccc(C)cc4)[C@@H]3O)nn2)cc1`, the pKd in [5] was below 2.70; in experiment [2] it was 3.03.

Consider `CO[C@@H]1O[C@H](CO)[C@H](O)[C@H](OCc2cn(-c3cccc(C(=O)O)c3)nn2)[C@H]1O`, for which the pKd was 3.30 in experiment [5] and 3.19 in experiment [2].

For `COC(=O)c1cccc(-n2cc(CO[C@H]3[C@@H](O)[C@@H](CO)O[C@@H](Sc4ccc(C)cc4)[C@@H]3O)nn2)c1`, the pKd in experiment [5] is 3.31; in experiment [2] it was 2.92.

As for `O=C(O)c1ccc2nc(CO[C@@H]3[C@@H](O)[C@@H](Sc4ccc(Cl)c(Cl)c4)O[C@H](CO)[C@@H]3O)[nH]c2c1`, the pKd is 3.80 in experiment [7]; 5.39 in experiment [5]; 4.06 in experiment [8]; 5.55 in experiment [2]; 4.11 in [9]; 4.37 in experiment [10]. For the same compound, the pKd in [12] is 4.89; in experiment [14], 3.35; in experiment [15], 4.00; in [16], 4.74. Moreover, the Selectivity ratio in experiment [11] came to 5; in experiment [13], 9.

As for `CO[C@@H]1O[C@H](CO)[C@H](O)[C@H](OCc2ccc3ccccc3n2)[C@H]1O`, the results for the pKd in experiment [3] and in experiment [4] were 3.15 and 3.21, respectively.

`CO[C@@H]1O[C@H](CO)[C@H](O)[C@H](OCc2cn(-c3ccc(C(=O)O)cc3)nn2)[C@H]1O`: the figures for the pKd in experiment [5] and in experiment [2] were 3.72 and 2.89, respectively.

`CO[C@@H]1O[C@H](CO)[C@H](O)[C@H](OCc2nc3ccccc3n2C)[C@H]1O`: the figures for the pKd in experiment [5] and in experiment [2] were 2.80 and 2.92, respectively.

Turning to `Cn1c(CO[C@@H]2[C@@H](O)[C@@H](Sc3ccc(Cl)c(Cl)c3)O[C@H](CO)[C@@H]2O)nc2ccc(C(=O)O)cc21`, the pKd in experiment [7] was 3.92; in experiment [5] it was 5.30; in [8], 3.89; in experiment [2], 5.74; in experiment [9] it was 3.89; in [10], 3.72. The pKd in experiment [12] was 4.80; in experiment [14] it was 3.12; in [15], 3.66; in experiment [16] it was 4.35. Also, the Selectivity ratio in experiment [6] and in [11] was 25 in each case.

For `CO[C@@H]1O[C@H](CO)[C@H](O)[C@H](OCc2nc3ccccc3o2)[C@H]1O`, the pKd is 3.21 in experiment [5] and 2.80 in experiment [2].

With `O=C(O)c1ccc2ccc(CO[C@@H]3[C@@H](O)[C@@H](Sc4ccc(Cl)c(Cl)c4)O[C@H](CO)[C@@H]3O)nc2c1`, the pKd in [3] was 5.82; in experiment [4] it was 5.92.

As for `CCOC(=O)c1ccc2c(c1)nc(CO[C@H]1[C@@H](O)[C@@H](CO)O[C@@H](OC)[C@@H]1O)n2C`, the pKd is 2.70 in [5] and 2.80 in experiment [2].

Consider `Cc1ccc(S[C@@H]2O[C@H](CO)[C@H](O)[C@H](OCc3cn(-c4cccc(C(=O)O)c4)nn3)[C@H]2O)cc1`, for which the figures for the pKd in [5] and in experiment [2] were 3.60 and 3.12, respectively.

Consider `CO[C@@H]1O[C@H](CO)[C@H](O)[C@H](OCc2cn(-c3ccccc3C(=O)O)nn2)[C@H]1O`, for which the pKd in [5] is 3.33. Also, the result in experiment [17] was inactive.

For `COC(=O)c1ccccc1-n1cc(CO[C@H]2[C@@H](O)[C@@H](CO)O[C@@H](OC)[C@@H]2O)nn1`, the pKd in [5] is 3.48; in experiment [2] it was 2.85.

For `COC(=O)c1ccccc1-n1cc(CO[C@H]2[C@@H](O)[C@@H](CO)O[C@@H](Sc3ccc(C)cc3)[C@@H]2O)nn1`, the values for the pKd in experiment [5] and in experiment [2] were below 2.70 and 2.96, respectively.

`CO[C@@H]1O[C@H](CO)[C@H](O)[C@H](OCc2nc3ccc(C(=O)O)cc3[nH]2)[C@H]1O`: the pKd in experiment [5] is 3.23; in [2], 3.51.
